Source: US20140350097A1, “TREATMENT OF HYPOTENSION ASSOCIATED WITH HEMODIALYSIS” (priority 2013, published 2014)

Tests used:
[1] = tested on: subjects with hypotensive episodes during hemodialysis; test: Human clinical dose escalation study in hemodialysis subjects with hypotensive episodes; format: in vivo
Excerpt: In that study, the drug was given to subjects who had at least 3 hypotensive episodes during hemodialysis in the prior month. Subjects received the drug during hemodialysis when systolic blood pressure (SBP) had fallen at least 15 mmHg. The following trends appeared between drug and placebo periods. […] The SBP over this time period averaged 4 mmHg higher for drug than for placebo with a standard deviation of 16 mmHg. […] As hypotension worsened, the patients developed several different symptoms that were not predictable for any given patient. Clinical interventions intended to relieve hypotension were also variable and were applied at inconsistent times from patient to patient. This was a result of long standing practices established by patient and nurse to avoid severe symptoms. For example, patients would sometimes request an intervention that they thought would be helpful and nurses would sometimes institute an intervention when they thought that a blood pressure trend might soon lead to symptoms. It was felt unethical to intervene in this process, since the aim was to avoid patient discomfort.

[2] = Preliminary intravenous pharmacokinetics in mice; format: in vivo, mouse; conditions: bolus injection 30 mg/kg i.v.
Procedure: The pharmacokinetics of intravenously administered NOX-100 was evaluated in mice, rats and dogs. Preliminary pharmacokinetic studies were conducted using a bolus injection of 30 mg/kg. Post injection, the drug was rapidly eliminated in all three species in a bi-exponential manner with a beta-t½ of approximately 6, 30 and 40 minutes in the mouse, rat and dog, respectively. […] The volume of distribution was around 20-30% of body weight and was similar in the three species. This is likely due to the hydrophilic nature of the drug and may reflect the distribution of NOX-100 primarily in the extracellular space.

rats = test: 4-day infusion toxicity in rats (2000 mg/kg over 2 hours); format: in vivo, rat
Procedure: The high dose of 2000 mg/kg of NOX-100 administered over a period of 2 hours was again tested in a group of rats for 4 consecutive days. […] Mitotic figures in basophilic tubules were also noted. These changes were considered treatment related. […] It appeared that female rats had lower plasma concentrations of NOX-100 compared to males.

beagle dogs [3] = test: Four-week repeated dose intravenous toxicity study in beagle dogs with two-week recovery; format: in vivo, dog
Procedure: The objective of this study was to investigate the toxicity of NOX-100 when administered as a single intravenous injection once daily for four consecutive weeks to beagle dogs and to determine the reversibility of changes which were established as treatment related. In addition, the systemic exposure of the animals to the test substance was determined and evaluated for correlation with dose and time after starting treatment.
NOX-100 was administered intravenously as a daily single dose (20 mL/kg administered over approximately 2.5 minutes) of 100, 300, and 1000 mg/kg for four weeks in Beagle dogs (n=17 dogs per gender−unbalanced randomization across treated groups). Following the termination of treatment, an additional group of dogs in the Control and highest dose group were held for a period of two weeks in order to determine if the potential treatment related changes were reversible.

[4] = Pharmacokinetics after bolus administration in hemodialysis subjects; format: in vivo, human
Excerpt: FIG. 1 depicts the results of plasma Cmax of NOX-100 after bolus administration in hemodialysis subjects as a function of dose. See Example 4.
FIG. 2 depicts the results of Area Under the Curve (AUC) of NOX-100 after bolus administration in hemodialysis subjects as a function of dose. See Example 4.
FIG. 3 depicts a histogram of plasma clearance of NOX-100 during dialysis after bolus administration in hemodialysis subject as a function of dose. Legend (x-axis, left to right): 0.33, 1, 3, 9, 25 and 50, mg/kg NOX-100. See Example 4.

beagle dogs [5] = test: 14-day infusion toxicity in beagle dogs; format: in vivo
Procedure: Based on the findings from the 4-day study, doses of NOX-100 at 100, 500 and 1000 mg/kg/day infused over a period of 8 hours for 14 days were evaluated in beagle dogs. […] Therefore the high dose of 1000 mg/kg/day was reduced to 250 mg/kg/day on Days 8-14. […] The low dose of 100 mg/kg/day over a period of 8 hours was considered a no-effect level.
The no adverse effect level in dogs (the animal that appeared most sensitive to the effects of NOX-100) was 100 mg/kg given as an 8 hour daily infusion for 14 days. In this study, the NOX-100 was administered as an 11.1 mg/kg bolus loading dose and an 8-hour 11.1 mg/kg/hr infusion maintenance dose.

[6] = tested on: rat model of shock induced by hemorrhage; test: Hemorrhagic shock rat model; format: in vivo; conditions: rats, 0.1 mmol/kg/hour
Excerpt: Treatment of these rats with NOX-100 (0.1 mmol/kg/hour) reduced the blood volume needed to maintain the blood pressure during shock and improved mean arterial pressure after resuscitation.

[7] = 2000 mg/kg over 2 hours, 4 consecutive days
[8] = both, beagle, dog, in vivo, 4 weeks
[9] = 24 hours after hemorrhagic shock

CN(C[C@H](O)[C@@H](O)[C@H](O)[C@H](O)CO)C(=S)S [NOX-100, N-methyl-D-glucamine dithiocarbamate]
clinically significant toxicity ([1]; 7 dose escalations, 4 subjects per group): did not reveal any clinically significant toxicity at any dose
average SBP difference, drug higher than placebo ([1]; 30 to 120 minutes following drug administration, standard deviation 16 mmHg): 4 mmHg
heart rate, diastolic blood pressure, number of interventions for low blood pressure or number of symptoms, drug versus placebo periods ([1]; hemodialysis subjects): no apparent differences
systolic blood pressure (SBP), drug versus placebo ([1]; three highest doses, 30 to 120 minutes following drug administration): trend for SBP to be higher after drug than after placebo
half-life ([2]; in vivo, iv, mouse, read-out: beta-t½): ~6 min
volume of distribution ([2]; mice): 20-30 % of body weight
clearance ([2]; mouse, in vivo, iv, mice, read-out: clearance rate): 26 mL/min/kg
plasma concentrations in female rats compared to males (rats; 2000 mg/kg): lower
hemoglobin and hematocrit values (rats; [7]): slight decrease
red blood cell count (rats; [7]): slight decrease
animals with cortical tubular basophilia of the kidney, occasionally with tubular dilatation (rats; 5 males, 2000 mg/kg/day, 2-hour infusion, 4 consecutive days): 5/5
plasma concentrations on Day 4 compared to Day 1 (rats; HPLC, 1 and 1.75 hours after infusion, 2000 mg/kg): slightly higher
mitotic figures in basophilic tubules (rats; males, 2000 mg/kg/day, 4 consecutive days): noted
clinical observation: salivation (beagle dogs [3]; [8]): salivation in the 1000 mg/kg group
clinical observation: vomiting (beagle dogs [3]; [8]): vomiting in the 100 mg/kg or higher dose groups
body weight, food consumption, hematology, EKG, ophthalmology or organ weights (beagle dogs [3]; dog, in vivo): no changes
gender related difference in systemic exposure (beagle dogs [3]; dog, in vivo): no gender related difference
incidence of vomiting after dosing, Treated groups versus group not dosed (beagle dogs [3]; dog, in vivo): higher
microscopic changes due to study substance (beagle dogs [3]; dog, in vivo): no microscopic changes
reversibility of other changes (beagle dogs [3]; dog, in vivo): reversed completely or showed a tendency for reversal
site of main toxicological findings (beagle dogs [3]; dog, in vivo): kidneys and urinary bladder
systemic exposure (blood levels) versus dose (beagle dogs [3]; dog, in vivo): linear dose dependent increase
urine specific gravity and urine volume (beagle dogs [3]; dog, in vivo): decrease in specific gravity and increase in urine volume
histopathological examination: pelvic mucosa and urinary bladder (beagle dogs [3]; dog, in vivo, 1000 mg/kg): Inflammatory cell infiltration in the pelvic mucosa, and erosion of mucosa in the urinary bladder
kidney histopathology of the moribund animal (beagle dogs [3]; dog, in vivo, 1000 mg/kg): moderate basophilia of the proximal renal tubules, pelvic mucosal epithelial hyperplasia, hyaline droplets in the proximal tubular epithelium and pelvic mucosal epithelium in the kidneys
laboratory determinations of sodium (beagle dogs [3]; dog, in vivo, 1000 mg/kg): increased
laboratory results on the day of necropsy, moribund animal (beagle dogs [3]; dog, in vivo, 1000 mg/kg): an increased white cell count with increased segmented neutrophils and an increase in gamma GT, ALP, urea nitrogen, creatinine, glucose, cholesterol, phospholipids, triglyceride, total protein, albumin, inorganic phosphorus and magnesium and a decrease in sodium and chloride
moribundity (beagle dogs [3]; dog, in vivo, 1000 mg/kg): became moribund six days after starting treatment
necropsy organ weights of the moribund animal (beagle dogs [3]; dog, in vivo, 1000 mg/kg): increased absolute and relative weight of the liver, kidneys and adrenals with a decrease noted in the thymus weight
other histopathological findings in the moribund animal (beagle dogs [3]; dog, in vivo, 1000 mg/kg): follicular atrophy of the mesenteric lymph node, acute atrophy of the thymus, glycogen accumulation in the liver, erosion of mucosa in the urinary bladder, and hypertrophy of cortical cells in the fascicular zone of the adrenals
renal papilla of the moribund animal (beagle dogs [3]; dog, in vivo, 1000 mg/kg): for the most part necrotic
no adverse effect level (beagle dogs [3]; dogs, pulse IV injection daily, four weeks): less than 100 mg/kg
clinical signs in the moribund animal (beagle dogs [3]; male, beagle, dog, in vivo, 1000 mg/kg): vomiting occurred on Days 1 to 6, no stools were passed on Days 4 to 6, decreased locomotor activity was noted on Days 5 to 6 and hypothermia and lateral position was noted on Day 6
plasma clearance during dialysis versus dose ([4]; 0.33-50 mg/kg, FIG. 3): decreased slightly with higher doses but the difference was not statistically significant
plasma Cmax versus dose ([4]; bolus administration, hemodialysis subjects, FIG. 1): proportional to the dose
Area Under the Curve (AUC) versus dose ([4]; bolus administration, hemodialysis subjects, FIG. 2): proportional to the dose
clearance ([4]; human, plasma, intravenous, averaged clearance from the 1, 9, and 50 mg/kg cohorts, read-out: plasma clearance during dialysis): ~3.3 mL/min/kg
mortality (beagle dogs [5]; 1000 mg/kg/day, 8-hour infusion): One male dog in the high dose (1000 mg/kg/day) group died on Day 6
dose concentration relationship (beagle dogs [5]; dog, in vivo): proportional dose concentration relationship
mean plasma concentration throughout Days 1, 7 and 14 (beagle dogs [5]; dog, in vivo): similar
mean steady state plasma concentrations, males versus females (beagle dogs [5]; dog, in vivo): no differences
dose level of initial toxicity as multiple of the no adverse effect level (beagle dogs [5]; dogs): 5 times
no adverse effect level (beagle dogs [5]; dogs, 8 hour daily infusion for 14 days): 100 mg/kg
no-effect level (beagle dogs [5]; dogs, over a period of 8 hours, 14 days): 100 mg/kg/day
mean plasma concentration between 4 to 7.75 hours from the start of infusion (beagle dogs [5]; each day): remained constant
clinical and laboratory findings accompanied by renal lesions (beagle dogs [5]; generally at 500 or 1000 mg/kg/day): Clinical signs of deterioration, reduction in body weight and food intake together with changes in serum chemistry and creatinine clearance
histopathological examination of the animal that died (beagle dogs [5]; male, 1000 mg/kg/day): renal lesions consisting of tubular basophilia and dilatation, hyperplasia of the transitional epithelium of the papilla and some vascular hemorrhage or congestion
blood volume needed to maintain the blood pressure during shock [6]: reduced
mean arterial pressure after resuscitation [6]: improved
elevation of serum ornithine carbamoyltransferase (indicator of hepatic injury) [6, 9]: prevented
inflammatory gene expression [6, 9]: prevented
transcription factor activation [6, 9]: prevented
